Publication PMC10892142, “Synthesis and In Vitro Antitumor Activity Evaluation of Gefitinib-1,2,3-Triazole Derivatives” (Molecules, 2024)
Blank lines part the entries; values can stand above or below the compound they belong to.

Legend:
NCI-H1299 cells = experiment: CCK-8 assay, NCI-H1299 cells; type: cell-based, human; details: Homo sapiens, NCI-H1299; CCK-8, 48 h, mean ± SD, n = 3
Procedure: (§1) Next, cell viability was determined according to the instructions of the CCK-8 assay. Then, 10 μL CCK-8 solution was added to each well of the plate and incubated for 1–4 h in the incubator. […] The percentage of viable cells was measured using the following formula where three independent experiments were performed: [(A450sample − A450blank)/(A450control − A450blank)] × 100%.

A549 cells = experiment: CCK-8 assay, A549 cells; type: cell-based; details: Homo sapiens, A549; CCK-8, 48 h, mean ± SD, n = 3
Procedure: as §1

NCI-H1437 cells = experiment: CCK-8 assay, NCI-H1437 cells; type: cell-based; details: Homo sapiens, NCI-H1437; CCK-8, 48 h, mean ± SD, n = 3
Procedure: as §1

L02 cells = experiment: CCK-8 assay, normal hepatic cells L02; type: cell-based; details: Homo sapiens; for inhibition at 2 µM / inhibition at 4 µM / inhibition at 8 µM / inhibition at 16 µM / inhibition at 32 µM: L02, 48 h, L02 cells, read-out: Inhibition Rate %, 48 h; for IC50: normal hepatic cells L02, CCK-8, 48 h, mean ± SD, n = 3
Procedure: NCI-H1299, NCI-H1437 and L02 cells were cultured in a humidified incubator (Thermo Scientific™ Forma™ Direct Heat CO2 Incubator, Waltham, MA, USA) at 37 °C with 5% CO2 in RPMI-1640 supplemented with 10% fetal bovine serum (FBS) and 1% Penicillin Streptomycin. A549 cells were cultured in a humidified incubator at 37 °C with 5% CO2 in Ham’s F-12K supplemented with 10% FBS and 1% Penicillin Streptomycin.
(§2) Three types of lung cells and L02 cells were seeded into 96-well plate at a density of 5 × 10^3 cells per well in the logarithmic growth phase and cultured at 37 °C. The cells were then treated initially with different concentrations of compounds 4a–4n (0, 2, 4, 8, 16 and 32 μM) for an additional 48 h, with three replicate wells each. Next, cell viability was determined according to the instructions of the CCK-8 assay. Then, 10 μL CCK-8 solution was added to each well of the plate and incubated for 1–4 h in the incubator. The absorbance was measured at 450 nm using a microplate reader (Bio-Tek, Winooski, VT, USA). The percentage of viable cells was measured using the following formula where three independent experiments were performed: [(A450sample − A450blank)/(A450control − A450blank)] × 100%.

lung cancer cells = experiment: CCK-8 assay, lung cancer cells (line not specified); type: cell-based; details: read-out: inhibition rate on lung cancer cells
Procedure: as §2

H1299 cells [1] = experiment: Annexin V-EGFP/PI flow cytometry for cell apoptosis; type: cell-based, human; details: 48 h
Procedure: H1299 cells were seeded in a 6-well plate at a density of 1 × 10^5 cells/well and incubated for 24 h. The following day, the medium was replaced with fresh medium containing 4b or 4c (2, 4 and 8 μM) and cells were incubated for an additional 48 h. Cell apoptosis was detected using Annexin V-EGFP/PI apoptosis detection kit (Beyotime Biotechnology, Shanghai, China) by flow cytometry. Subsequently, 5 μL of […] Annexin V and 10 μL of PI was added to the cell suspension, gently vortexed and incubated at room temperature in the dark for 20 min. Then, single-cell suspension was prepared followed by flow cytometry (BD Accuri™ C6 Plus, BD Biosciences, Franklin Lake, NJ, USA).

H1299 cells [2] = experiment: DAPI staining for cell apoptosis; type: cell-based, human; details: H1299, 2, 4 and 8 μM, 48 h
Procedure: H1299 (1.5 × 10^4–2 × 10^4/well) cells were seeded in 24-well plates for 24 h and then treated with 4b or 4c at the concentrations of 2, 4 and 8 μM for 48 h. The cells were fixed for 30 min at room temperature in 4% paraformaldehyde and washed three times in PBS. Finally, every well was stained with DAPI (10 μg/mL) at room temperature for 30 min and washed at least three times in PBS. The fluorescence microscope was used to observe the morphological changes of cell nuclei.

H1299 cells [3] = experiment: Wound healing (cell scratch) assay; type: cell-based, human; details: 24 h
Procedure: H1299 cells were seeded in a 6-well plate. When the cell confluency reached 95%, a wound line was scratched using a 200 μl pipette tip and then washed three times. Then, fresh medium containing 4b or 4c (2, 4 and 8 μM) was added and the plate was incubated at 37 °C with 5% CO2. All images were captured at 0 h and 24 h under an inverted microscope, and the quantification of scratches was analyzed using Image J (https://imagej.net/ij/, accessed on 4 January 2024).

H1299 cells [4] = experiment: Transwell migration assay; type: cell-based, human; details: H1299, 2, 4 and 8 μM, 24 h, vs normal control
Procedure: Transwell assay was used to determine the migration ability of H1299 cells. Cells were starved in serum-free RPMI 1640 medium for 24 h, then detached and resuspended in serum-free RPMI 1640 medium. 5 × 10^5 cells/mL were inoculated into the upper chamber of a 24-well Transwell plate (Corning Inc., Corning, NY, USA), with a volume of 100 μL per well. Then, 100 μL serum-free medium containing 4b or 4c (2, 4 and 8 μM) was added to the upper chamber and the lower chamber was filled with 700 μL medium containing 20% FBS. After incubation for 24 h, H1299 cells on the upper membrane of the transwell were wiped off. The migrated cells were treated with 4% paraformaldehyde for 20 min, stained with 0.1% crystal violet for 20 min and washed three times with PBS. The number of H1299 cells that migrated to the underside of the membrane was counted under the inverted fluorescence microscope. Three randomly selected areas from each transwell were photographed and calculated using Image J.

H1299 cells [5] = experiment: Colony formation assay; type: cell-based, human; details: seven days
Procedure: H1299 cells were seeded in six-well plates at a density of 500 cells per well and treated with 4b or 4c (1, 2 and 4 μM) for seven days. Then, cells were per-fixed with 4% paraformaldehyde for 30 min, stained with 0.1% crystal violet for 15 min and then washed with pure water. After destain with water, the plates were allowed to dry at room temperature overnight. Image J was used to count the number of clone formations.

[6] = system: Bcl-2/caspase3/PARP signaling pathway; experiment: Western blot, apoptosis proteins in H1299 cells; type: cell-based, human; details: H1299, 4, 8 and 16 μM, 48 h
Procedure: (§3) Firstly, H1299 cells were treated with the different concentrations of 4b and 4c at 4, 8 and 16 μM for 48 h. Then, cells were harvested using RIPA lysate (R0010, Solarbio, Beijing, China) and centrifuged at 12,000× g rpm for 15 min at 4 °C. Following that, the concentration of total protein was measured and taken from the supernatant. Protein was separated by 12% SDS-polyacrylamide gel electrophoresis and transferred to nitrocellulose filter membrane. After blocking in 5% milk for 2 h, the membranes were incubated with a specific primary antibody at 4 °C overnight. The next day, NC membranes were incubated for 1 h at room temperature with appropriate secondary antibodies and then protein bands were visualizing by chemiluminescence detection (ECL kit, Genview, Beijing, China).

MMP9 = experiment: Western blot, MMP9 in H1299 cells; type: cell-based, human; details: H1299, with increasing drug concentration
Procedure: as §3

IDO1 = details: read-out: IDO1 inhibitory activity IC50; cited from earlier work

- IC50 (NCI-H1299 cells): 4.6 ± 0.18 µM
- IC50 (A549 cells): 4 ± 0.08 µM
- IC50 (NCI-H1437 cells): 3.51 ± 0.05 µM
- melting point: 202 to 203 °C
Compound: COc1cc2ncnc(Nc3cccc(-c4cn(Cc5cccc(F)c5)nn4)c3)c2cc1OCCCN1CCOCC1 [Compound 4c, N-(3-(1-(3-Fluorobenzyl)-1H-1,2,3-triazol-4-yl)phenyl)-7-methoxy-6-(3-morpholinopropoxy)quinazolin-4-amine]
- inhibition at 2 µM (L02 cells): 7.18 ± 1.22%
- inhibition at 4 µM (L02 cells): < 20%
- inhibition at 8 µM (L02 cells): 27.6 ± 2.79%
- inhibition at 16 µM (L02 cells): 30.6 ± 1.93%
- inhibition at 32 µM (L02 cells): 56.1 ± 5.77%
- IC50 (L02 cells): 29.4 ± 5.53 µM
- inhibition at 4 µM (lung cancer cells): 50%
- total apoptotic cell proportion (H1299 cells [1]; H1299, 2 μM): 16.37 ± 0.57%
- total apoptotic cell proportion (H1299 cells [1]; H1299, 4 μM): 31.2 ± 2.36%
- total apoptotic cell proportion (H1299 cells [1]; H1299, 8 μM): 51.77 ± 6.74%
- nuclear morphology (DAPI staining) (H1299 cells [2]): typical apoptotic features
- migration closure rate (H1299 cells [3]; H1299, 2 μM): 53.26 ± 4.51%
- migration closure rate (H1299 cells [3]; H1299, 4 μM): 40.04 ± 8.02%
- migration closure rate (H1299 cells [3]; H1299, 8 μM): 17.90 ± 3.46%
- number of cells crossing the microporous membrane (H1299 cells [4]): significant reduction
- formation of H1299 cell colonies (H1299 cells [5]; 1 μM): significantly inhibit
- formation of H1299 cell colonies (H1299 cells [5]; 4 μM): almost completely inhibited
- expression level of Bcl-2 protein [6]: concentration-dependent decrease
- expression level of PARP protein [6]: concentration-dependent decrease
- expression level of caspase 3 protein [6]: concentration-dependent decrease
- expression level of caspase 9 protein [6]: concentration-dependent decrease
- expression level of cleaved PARP protein [6]: increased
- expression level of cleaved caspase 3 protein [6]: increased
- MMP9 protein expression (MMP9): decrease in MMP9 protein expression

- IC50 (NCI-H1299 cells): 5.43 ± 0.24 µM
- IC50 (A549 cells): 7.53 ± 0.66 µM
- IC50 (NCI-H1437 cells): 2.23 ± 0.26 µM
- melting point: 167 to 168 °C
Compound: COc1cc2ncnc(Nc3cccc(-c4cn(Cc5ccccc5C#N)nn4)c3)c2cc1OCCCN1CCOCC1 [Compound 4l, 2-((4-(3-((7-Methoxy-6-(3-morpholinopropoxy)quinazolin-4-yl)amino)phenyl)-1H-1,2,3-triazol-1-yl)methyl)benzonitrile]

- IC50 (NCI-H1299 cells): 5.91 ± 0.44 µM
- IC50 (A549 cells): 10.4 ± 0.82 µM
- IC50 (NCI-H1437 cells): 5.79 ± 0.88 µM
- melting point: 168 to 169 °C
Compound: COc1cc2ncnc(Nc3cccc(-c4cn(Cc5ccc(C)cc5)nn4)c3)c2cc1OCCCN1CCOCC1 [Compound 4n, 7-methoxy-N-(3-(1-(4-methylbenzyl)-1H-1,2,3-triazol-4-yl)phenyl)-6-(3-morpholinopropoxy)quinazolin-4-amine]

Further lines, the compound ahead of its results:

Compound: COc1cc2ncnc(Nc3cccc(-c4cn(Cc5ccccc5Br)nn4)c3)c2cc1OCCCN1CCOCC1 [Compound 4b, N-(3-(1-(2-Bromobenzyl)-1H-1,2,3-triazol-4-yl)phenyl)-7-methoxy-6-(3-morpholinopropoxy)quinazolin-4-amine]
- IC50 (NCI-H1299 cells): 4.42 ± 0.24 µM
- IC50 (A549 cells): 3.94 ± 0.01 µM
- IC50 (NCI-H1437 cells): 1.56 ± 0.06 µM
- inhibition at 2 µM (L02 cells): 9.09 ± 1%
- inhibition at 4 µM (L02 cells): < 20%
- inhibition at 8 µM (L02 cells): 29.8 ± 1.27%
- inhibition at 16 µM (L02 cells): 39.1 ± 2.18%
- inhibition at 32 µM (L02 cells): 64.8 ± 1.84%
- IC50 (L02 cells): 20.2 ± 1.26 µM
- inhibition at 4 µM (lung cancer cells): 50%
- total apoptotic cell proportion (H1299 cells [1]; H1299, 2 μM): 20.43 ± 1.72%
- total apoptotic cell proportion (H1299 cells [1]; H1299, 4 μM): 43.2 ± 2.4%
- total apoptotic cell proportion (H1299 cells [1]; H1299, 8 μM): 77.4 ± 3.97%
- nuclear morphology (DAPI staining) (H1299 cells [2]): typical apoptotic features
- migration closure rate (H1299 cells [3]; H1299, 2 μM): 72.59 ± 2.12%
- migration closure rate (H1299 cells [3]; H1299, 4 μM): 62.42 ± 5.50%
- migration closure rate (H1299 cells [3]; H1299, 8 μM): 49.79 ± 2.22%
- number of cells crossing the microporous membrane (H1299 cells [4]): significant reduction
- formation of H1299 cell colonies (H1299 cells [5]; 1 μM): significantly inhibit
- formation of H1299 cell colonies (H1299 cells [5]; 4 μM): almost completely inhibited
- expression level of Bcl-2 protein [6]: concentration-dependent decrease
- expression level of PARP protein [6]: concentration-dependent decrease
- expression level of caspase 3 protein [6]: concentration-dependent decrease
- expression level of caspase 9 protein [6]: concentration-dependent decrease
- expression level of cleaved PARP protein [6]: increased
- expression level of cleaved caspase 3 protein [6]: increased
- MMP9 protein expression (MMP9): decrease in MMP9 protein expression
- melting point: 165 to 166 °C

Compound: Oc1ccc(Cl)cc1-c1cnn[nH]1 [MMG-0358]
- IC50 (IDO1): 0.082 µM

Compound: Clc1ccc(Nc2cnn[nH]2)cc1 [Vertex-AT]
- IC50 (IDO1): 0.023 µM

Compound: COCCOc1cc2ncnc(Nc3cccc(-c4cn(Cc5ccccc5Br)nn4)c3)c2cc1OCCOC [compound e]
- IC50 (IDO1): 0.32 ± 0.07 µM
